Source: patent publication US11629171B2, “Beta-hairpin peptidomimetics” (POLYPHOR AG, priority 2017, dated 2023)
≈ marks a conversion by molar mass, not a printed value. Where a SMILES comes first, the peptide text is derived from it. Bridges are numbered along the chain shown (N, C = ends). Roman numbers before positions name the chains, in order. [ ]: non-standard residue; d: D form. The star is where a group is joined. Tle = CC(C)(C)[C@H](N)C(=O)O; Hiv = CC(C)[C@H](O)C(=O)O; dDab = NCC[C@@H](N)C(=O)O; hSer = N[C@@H](CCO)C(=O)O; Dab = NCC[C@H](N)C(=O)O; Abu = CC[C@H](N)C(=O)O; Dap = NC[C@H](N)C(=O)O; OiPr = CC(C)O*

Legend:
Assay type in all cases: cell-based
[1] = system: Klebsiella pneumoniae 968733; conditions: 968733
In short: (§1)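 Peptides are tested in serial two-fold dilutions against about 10^6 CFU/mL in MH-II broth containing 0.002% P-80 (v/v, final). Plates incubate 18-20 h at 35° C, and the MIC is the lowest peptide level (μg/mL) showing no visible growth.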

Escherichia coli 926415 = conditions: 926415
In short: as §1

[2] = system: Acinetobacter baumannii 872842; conditions: 872842
In short: as §1

[3] = system: Enterobacter cloacae 848840; conditions: 848840
In short: as §1

[4] = system: Pseudomonas aeruginosa ATCC 27853; conditions: ATCC 27853
In short: as §1

[5] = system: Acinetobacter baumannii DSM 30008; conditions: DSM 30008
In short: as §1

[6] = system: Escherichia coli ATCC 25922; conditions: ATCC 25922
In short: as §1

[7] = system: Klebsiella pneumoniae SSI #3010; conditions: SSI #3010
In short: as §1

[8] = system: human red blood cells (hRBC); assay: Hemolysis; conditions: red cells of human, 1 h, 200
In short: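 Percent hemolysis relative to 2% Triton X-100 (100%) and PBS/10% water (0%), from blank-corrected OD540 of diluted supernatants. Peptides tested at 200 μg/mL against 20% (v/v) washed human erythrocytes, 1 h, 37° C, shaking at 300 rpm.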

Row | SMILES | MIC [1] [µg/mL] | MIC (Escherichia coli 926415) [µg/mL] | MIC [2] [µg/mL] | MIC [3] [µg/mL] | MIC [4] [µg/mL] | MIC [5] [µg/mL] | MIC [6] [µg/mL] | MIC [7] [µg/mL] | Hemolysis at 200 μg/mL [8] [%]
1 | CC(=O)N[C@H](C(=O)N[C@H]1CSSC[C@@H](C(=O)N[C@@H](CO)C(N)=O)NC(=O)[C@H](C(C)(C)C)NC(=O)[C@H](CO)NC(=O)[C@H](Cc2c[nH]c3ccccc23)NC(=O)[C@H]([C@@H](C)O)NC(=O)[C@@H](CCN)NC(=O)[C@H](CCC(=O)N[C@@H](CCN)C(=O)N[C@H](C(=O)N[C@@H](CCN)C(=O)N[C@H]2CCNC(=O)[C@H]([C@@H](C)O)NC(=O)[C@H](CCN)NC(=O)[C@H](CCN)NC(=O)[C@H](CC(C)C)NC(=O)[C@@H](CC(C)C)NC(=O)[C@H](CCN)NC2=O)[C@@H](C)O)NC(=O)[C@H](CO)NC(=O)[C@H](Cc2ccc(O)cc2)NC1=O)C(C)C [Ex. 46] (I: Ac-VCYSE[dDab]TWS[Tle]CS-NH2 / II: [Dab]T[Dab][Dab][Dab][dL]L[Dab][Dab]T; disulfide I:2-I:11; amide I:5-II:N; lactam II:4-II:C) | 0.5 (≈ 0.206 µM) | 0.125 (≈ 0.0515 µM) | 0.125 (≈ 0.0515 µM) | 0.125 (≈ 0.0515 µM) | 0.125 (≈ 0.0515 µM) | 0.0625 (≈ 0.0257 µM) | 0.0625 (≈ 0.0257 µM) | 0.125 (≈ 0.0515 µM) | 2
2 | CC(C)C[C@@H]1NC(=O)[C@@H](CC(C)C)NC(=O)[C@H](CCN)NC(=O)[C@@H](NC(=O)[C@H](CN)NC(=O)[C@@H](NC(=O)[C@H](CCN)NC(=O)CC[C@H]2NC(=O)[C@@H](CCN)NC(=O)CNC(=O)[C@H](CCN)NC(=O)[C@H](Cc3ccc(O)cc3)NC(=O)[C@@H](NC(=O)[C@@H](O)C(C)C)CSSC[C@@H](C(=O)N[C@H](C(N)=O)[C@@H](C)O)NC(=O)[C@H](C(C)(C)C)NC(=O)[C@H](CO)NC(=O)[C@H](Cc3c[nH]c4ccccc34)NC2=O)[C@@H](C)O)CCNC(=O)[C@H]([C@@H](C)O)NC(=O)[C@H](CCN)NC(=O)[C@H](CCN)NC1=O [Ex. 171] (I: H-[Hiv]CY[Dab]G[dDab][dE]WS[Tle]CT-NH2 / II: [Dab]T[Dap][Dab][Dab][dL]L[Dab][Dab]T; disulfide I:2-I:11; amide I:7-II:N; lactam II:4-II:C) | 0.5 (≈ 0.212 µM) | 0.125 (≈ 0.0531 µM) | 0.0625 (≈ 0.0265 µM) | 0.5 (≈ 0.212 µM) | 0.25 (≈ 0.106 µM) | 0.0625 (≈ 0.0265 µM) | 0.125 (≈ 0.0531 µM) | 0.125 (≈ 0.0531 µM) | <1
3 | CC(=O)N[C@H](C(=O)N[C@H]1CSSC[C@@H](C(=O)N[C@@H](CO)C(=O)OC(C)C)NC(=O)[C@H](C(C)(C)C)NC(=O)[C@H](CO)NC(=O)[C@H](Cc2c[nH]c3ccccc23)NC(=O)[C@H](CO)NC(=O)[C@@H](CCN)NC(=O)[C@H](CCC(=O)N[C@@H](CCN)C(=O)N[C@H](C(=O)N[C@@H](CN)C(=O)N[C@H]2CCNC(=O)[C@H]([C@@H](C)O)NC(=O)[C@H](CCN)NC(=O)[C@H](CCN)NC(=O)[C@H](CC(C)C)NC(=O)[C@@H](CC(C)C)NC(=O)[C@H](CCN)NC2=O)[C@@H](C)O)NC(=O)[C@H](CN)NC(=O)[C@H](Cc2ccc(O)cc2)NC1=O)C(C)C [Ex. 122] (I: Ac-VCY[Dap]E[dDab]SWS[Tle]CS-OiPr / II: [Dab]T[Dap][Dab][Dab][dL]L[Dab][Dab]T; disulfide I:2-I:11; amide I:5-II:N; lactam II:4-II:C) | 2 (≈ 0.819 µM) | 4 (≈ 1.64 µM) | 1 (≈ 0.41 µM) | 2 (≈ 0.819 µM) | 0.5 (≈ 0.205 µM) | 0.25 (≈ 0.102 µM) | 0.25 (≈ 0.102 µM) | 0.5 (≈ 0.205 µM) | 1
4 | CC(=O)N[C@H](C(=O)N[C@H]1CSSC[C@@H](C(=O)N[C@@H](CO)C(N)=O)NC(=O)[C@H](Cc2ccc(O)cc2)NC(=O)[C@H](CO)NC(=O)[C@H](Cc2c[nH]c3ccccc23)NC(=O)[C@H](CCO)NC(=O)[C@@H](CCN)NC(=O)[C@H](CCC(=O)N[C@@H](CCN)C(=O)N[C@H](C(=O)N[C@@H](CCN)C(=O)N[C@H]2CCNC(=O)[C@H]([C@@H](C)O)NC(=O)[C@H](CCN)NC(=O)[C@H](CCN)NC(=O)[C@H](CC(C)C)NC(=O)[C@@H](CC(C)C)NC(=O)[C@H](CCN)NC2=O)[C@@H](C)O)NC(=O)[C@H](CCN)NC(=O)[C@H](C(C)C)NC1=O)C(C)C [Ex. 64] (I: Ac-VCV[Dab]E[dDab][hSer]WSYCS-NH2 / II: [Dab]T[Dab][Dab][Dab][dL]L[Dab][Dab]T; disulfide I:2-I:11; amide I:5-II:N; lactam II:4-II:C) | 1 (≈ 0.412 µM) | 0.5 (≈ 0.206 µM) | 0.5 (≈ 0.206 µM) | 4 (≈ 1.65 µM) | 0.125 (≈ 0.0515 µM) | 0.0625 (≈ 0.0258 µM) | 0.125 (≈ 0.0515 µM) | 0.125 (≈ 0.0515 µM) | <1
5 | CC(=O)N[C@H](C(=O)N[C@H](C(=O)N[C@@H](Cc1ccc(O)cc1)C(=O)N[C@H]1CSSC[C@@H](C(=O)N[C@H](C(=O)N[C@@H](CCN)C(=O)N[C@H](C(N)=O)C(C)C)C(C)(C)C)NC(=O)[C@H](Cc2c[nH]c3ccccc23)NC(=O)[C@H](CO)NC(=O)[C@@H](CCN)NC(=O)[C@H](CCC(=O)N[C@@H](CCN)C(=O)N[C@H](C(=O)N[C@@H](CN)C(=O)N[C@H]2CCNC(=O)[C@H]([C@@H](C)O)NC(=O)[C@H](CCN)NC(=O)[C@H](CCN)NC(=O)[C@H](CC(C)C)NC(=O)[C@@H](CC(C)C)NC(=O)[C@H](CCN)NC2=O)[C@@H](C)O)NC1=O)[C@@H](C)O)C(C)C [Ex. 206] (I: Ac-VTYCE[dDab]SWC[Tle][Dab]V-NH2 / II: [Dab]T[Dap][Dab][Dab][dL]L[Dab][Dab]T; disulfide I:4-I:9; amide I:5-II:N; lactam II:4-II:C) | 0.5 (≈ 0.205 µM) | 0.0625 (≈ 0.0256 µM) | 0.0625 (≈ 0.0256 µM) | 0.125 (≈ 0.0513 µM) | 0.125 (≈ 0.0513 µM) | 0.0625 (≈ 0.0256 µM) | 0.03125 (≈ 0.0128 µM) | 0.0625 (≈ 0.0256 µM) | 1
6 | CC[C@@H]1NC(=O)[C@@H](CC(C)C)NC(=O)[C@H](CCN)NC(=O)[C@@H](NC(=O)[C@H](CN)NC(=O)[C@@H](NC(=O)[C@H](CCN)NC(=O)CC[C@@H]2NC(=O)[C@H]([C@@H](C)O)NC(=O)[C@H](Cc3ccc(O)cc3)NC(=O)[C@@H](NC(=O)[C@@H](NC(C)=O)C(C)C)CSSC[C@@H](C(=O)N[C@@H](CO)C(N)=O)NC(=O)[C@H](C(C)(C)C)NC(=O)[C@H](CO)NC(=O)[C@H](Cc3c[nH]c4ccccc34)NC(=O)[C@H](CCN)NC(=O)[C@@H](CCN)NC2=O)[C@@H](C)O)CCNC(=O)[C@H]([C@@H](C)O)NC(=O)[C@H](CCN)NC(=O)[C@H](CCN)NC1=O [Ex. 255] (I: Ac-VCYTE[dDab][Dab]WS[Tle]CS-NH2 / II: [Dab]T[Dap][Dab][Dab][dL][Abu][Dab][Dab]T; disulfide I:2-I:11; amide I:5-II:N; lactam II:4-II:C) | 0.25 (≈ 0.104 µM) | 0.0625 (≈ 0.0261 µM) | 0.125 (≈ 0.0521 µM) | 0.0625 (≈ 0.0261 µM) | 0.0625 (≈ 0.0261 µM) | 0.03125 (≈ 0.013 µM) | 0.0625 (≈ 0.0261 µM) | 0.03125 (≈ 0.013 µM) | 1
7 | CC(=O)N[C@@H](CCN)C(=O)N[C@H](C(=O)N[C@H]1CSSC[C@@H](C(N)=O)NC(=O)[C@H](C(C)(C)C)NC(=O)[C@H](CO)NC(=O)[C@H](Cc2c[nH]c3ccccc23)NC(=O)[C@H](CO)NC(=O)[C@@H](CCN)NC(=O)[C@H](CCC(=O)N[C@@H](CCN)C(=O)N[C@H](C(=O)N[C@@H](CN)C(=O)N[C@H]2CCNC(=O)[C@H]([C@@H](C)O)NC(=O)[C@H](CCN)NC(=O)[C@H](CCN)NC(=O)[C@H](CC(C)C)NC(=O)[C@@H](CC(C)C)NC(=O)[C@H](CCN)NC2=O)[C@@H](C)O)NC(=O)[C@H](CN)NC(=O)[C@H](Cc2ccc(O)cc2)NC1=O)C(C)C [Ex. 125] (I: Ac-[Dab]VCY[Dap]E[dDab]SWS[Tle]C-NH2 / II: [Dab]T[Dap][Dab][Dab][dL]L[Dab][Dab]T; disulfide I:3-I:12; amide I:6-II:N; lactam II:4-II:C) | 0.125 (≈ 0.0518 µM) | 0.0625 (≈ 0.0259 µM) | 0.125 (≈ 0.0518 µM) | 0.125 (≈ 0.0518 µM) | 0.125 (≈ 0.0518 µM) | 0.125 (≈ 0.0518 µM) | 0.0625 (≈ 0.0259 µM) | 0.0625 (≈ 0.0259 µM) | 2
